Results from ChEMBL document CHEMBL1138211, “New benzopyran-based openers of the mitochondrial ATP-sensitive potassium channel with potent anti-ischemic properties” (J Med Chem, 2006).
One block for each compound: values may come before it. The source made the active and inactive calls. No cut-off for these calls is given here.

What was measured:
Rattus norvegicus [1] = experiment: Ischemia-injured area relative to total area in Langendorff perfused Wistar rat heart subjected to ischemia-reperfusion cycles at 40 mg/kg, ip; format: functional; conditions: route intraperitoneal
Aorta [2] = experiment: Vasorelaxation activity on KCl-induced contractile tone in Wistar rat thoracic aortic ring; format: functional, tissue-based
Aorta [3] = experiment: Vasorelaxation activity on KCl-induced contractile tone in Wistar rat thoracic aortic ring at 100 uM; format: functional
Rattus norvegicus [4] = experiment: Activity in Langendorff perfused Wistar rat heart subjected to ischemia-reperfusion cycles at 40 mg/kg, ip after 30 mins; format: functional; conditions: route intraperitoneal
Rattus norvegicus [5] = experiment: Activity in Langendorff perfused Wistar rat heart subjected to ischemia-reperfusion cycles at 40 mg/kg, ip after 120 mins; format: functional; conditions: route intraperitoneal
Rattus norvegicus [6] = experiment: LDH release in Langendorff perfused Wistar rat heart subjected to ischemia-reperfusion cycles at 40 mg/kg, ip after 120 mins; format: functional; conditions: route intraperitoneal
Rattus norvegicus [7] = experiment: LDH release in Langendorff perfused Wistar rat heart subjected to ischemia-reperfusion cycles at 40 mg/kg, ip after 120 mins in presence of 5-hydroxydecanoic acid; format: functional; conditions: route intraperitoneal
Rattus norvegicus [8] = experiment: Activity in Langendorff perfused Wistar rat heart subjected to ischemia-reperfusion cycles at 40 mg/kg, ip after 30 mins in presence of 5-hydroxydecanoic acid; format: functional; conditions: route intraperitoneal
Rattus norvegicus [9] = experiment: Activity in Langendorff perfused Wistar rat heart subjected to ischemia-reperfusion cycles at 40 mg/kg, ip after 120 mins in presence of 5-hydroxydecanoic acid; format: functional; conditions: route intraperitoneal
Rattus norvegicus [10] = experiment: Ischemia-injured area relative to total area in Langendorff perfused Wistar rat heart subjected to ischemia-reperfusion cycles at 40 mg/kg, ip in presence of 5-hydroxydecanoic acid; format: functional; conditions: route intraperitoneal
Rattus norvegicus [11] = experiment: LDH release in Langendorff perfused Wistar rat heart subjected to ischemia-reperfusion cycles at 1 mg/kg, ip after 120 mins; format: functional; conditions: route intraperitoneal
Rattus norvegicus [12] = experiment: LDH release in Langendorff perfused Wistar rat heart subjected to ischemia-reperfusion cycles at 1 mg/kg, ip after 120 mins in presence of 5-hydroxydecanoic acid; format: functional; conditions: route intraperitoneal
Rattus norvegicus [13] = experiment: Ischemia-injured area relative to total area in Langendorff perfused Wistar rat heart subjected to ischemia-reperfusion cycles at 1 mg/kg, ip; format: functional; conditions: route intraperitoneal
Rattus norvegicus [14] = experiment: Ischemia-injured area relative to total area in Langendorff perfused Wistar rat heart subjected to ischemia-reperfusion cycles at 1 mg/kg, ip in presence of 5-hydroxydecanoic acid; format: functional; conditions: route intraperitoneal
Rattus norvegicus [15] = experiment: Decrease in systolic blood pressure in Wistar rat at 1 mg/kg, ip after 60 mins; format: functional, organism-based; set-up: dose 1 mg/kg; conditions: Artery
Rattus norvegicus [16] = experiment: Activity in Langendorff perfused Wistar rat heart subjected to ischemia-reperfusion cycles at 1 mg/kg, ip after 30 mins; format: functional; conditions: route intraperitoneal
Rattus norvegicus [17] = experiment: Activity in Langendorff perfused Wistar rat heart subjected to ischemia-reperfusion cycles at 1 mg/kg, ip after 30 mins in presence of 5-hydroxydecanoic acid; format: functional; conditions: route intraperitoneal
Rattus norvegicus [18] = experiment: Activity in Langendorff perfused Wistar rat heart subjected to ischemia-reperfusion cycles at 1 mg/kg, ip after 120 mins; format: functional; conditions: route intraperitoneal
Rattus norvegicus [19] = experiment: Activity in Langendorff perfused Wistar rat heart subjected to ischemia-reperfusion cycles at 1 mg/kg, ip after 120 mins in presence of 5-hydroxydecanoic acid; format: functional; conditions: route intraperitoneal

- IC50 (Aorta [2]): 15.1 µM
SMILES: CC(=O)Nc1ccc(CN2CC3(CC(C)(C)Oc4ccc(Br)cc43)OCC2=O)cc1 (racemic)
- Activity (Rattus norvegicus [1]): 58%
- Emax at 100 µM (Aorta [3]): 70%
- Activity (Rattus norvegicus [4]): 2%
- Activity (Rattus norvegicus [5]): 3%
- LDH release (Rattus norvegicus [6]): 12.4 U/g

- IC50 (Aorta [2]): 13.2 µM
SMILES: CC(=O)Nc1ccc(CN2CCOC3(C2)CC(C)(C)Oc2ccccc23)cc1 (racemic)
- Activity (Rattus norvegicus [1]): 50%
- Emax at 100 µM (Aorta [3]): 77%
- Activity (Rattus norvegicus [4]): 12%
- Activity (Rattus norvegicus [5]): 17%
- LDH release (Rattus norvegicus [6]): 16 U/g

SMILES: CC1(C)CC2(CN(Cc3ccc(NS(C)(=O)=O)cc3)CCO2)c2cc(Br)ccc2O1 (racemic)
- Activity (Rattus norvegicus [7]): 13.4 U/g
- Activity (Rattus norvegicus [1]): 14%
- Emax at 100 µM (Aorta [3]): 98%
- Activity (Rattus norvegicus [4]): 89%
- Activity (Rattus norvegicus [8]): 17%
- Activity (Rattus norvegicus [5]): 77%
- Activity (Rattus norvegicus [9]): 33%
- LDH release (Rattus norvegicus [6]): 6.9 U/g
- Activity (Rattus norvegicus [10]): 40%

- IC50 (Aorta [2]): 19.1 µM
SMILES: CC1=Nc2ccc(Cl)cc2S(=O)(=O)N1 [DIAZOXIDE]
- Activity (Rattus norvegicus [7]): 14.5%
- Activity (Rattus norvegicus [1]): 22%
- Emax at 100 µM (Aorta [3]): 97%
- Activity (Rattus norvegicus [4]): 80%
- Activity (Rattus norvegicus [8]): 13%
- Activity (Rattus norvegicus [5]): 47%
- Activity (Rattus norvegicus [9]): 6%
- LDH release (Rattus norvegicus [6]): 5.7 U/g
- Activity (Rattus norvegicus [10]): 52%

- IC50 (Aorta [2]): 0.0977 µM
SMILES: CC1(C)Oc2ccc(C#N)cc2C(N2CCCC2=O)C1O (racemic) [CROMAKALIM]
- Activity (Rattus norvegicus [11]): 5.5%
- Activity (Rattus norvegicus [12]): 8.6%
- Activity (Rattus norvegicus [13]): 25%
- Activity (Rattus norvegicus [14]): 38%
- Emax at 100 µM (Aorta [3]): 98%
- Activity (Rattus norvegicus [15]): Active
- Activity (Rattus norvegicus [16]): 99%
- Activity (Rattus norvegicus [17]): 11%
- Activity (Rattus norvegicus [18]): 84%
- Activity (Rattus norvegicus [19]): 18%

- IC50 (Aorta [2]): 7.24 µM
SMILES: CC1(C)CC2(CN(Cc3ccc(NS(C)(=O)=O)cc3)C(=O)CO2)c2cc(Br)ccc2O1 (racemic)
- Activity (Rattus norvegicus [7]): 11.7 U/g
- Activity (Rattus norvegicus [1]): 13%
- Emax at 100 µM (Aorta [3]): 87%
- Activity (Rattus norvegicus [4]): 75%
- Activity (Rattus norvegicus [8]): 52%
- Activity (Rattus norvegicus [5]): 57%
- Activity (Rattus norvegicus [9]): 39%
- LDH release (Rattus norvegicus [6]): 3 U/g
- Activity (Rattus norvegicus [10]): 47%

- IC50 (Aorta [2]): 2.4 µM
SMILES: CC(=O)Nc1ccc(CN2CCOC3(C2)CC(C)(C)Oc2ccc(Br)cc23)cc1 (racemic)
- Activity (Rattus norvegicus [1]): 61%
- Emax at 100 µM (Aorta [3]): 99%
- Activity (Rattus norvegicus [4]): 15%
- Activity (Rattus norvegicus [5]): 26%
- LDH release (Rattus norvegicus [6]): 11.3 U/g

- IC50 (Aorta [2]): 25.1 µM
SMILES: CC(=O)Nc1ccc(CN2CC3(CC(C)(C)Oc4ccccc43)OCC2=O)cc1 (racemic)
- Activity (Rattus norvegicus [7]): 13.5 U/g
- Activity (Rattus norvegicus [1]): 20%
- Emax at 100 µM (Aorta [3]): 57%
- Activity (Rattus norvegicus [4]): 79%
- Activity (Rattus norvegicus [8]): 16%
- Activity (Rattus norvegicus [5]): 62%
- Activity (Rattus norvegicus [9]): 27%
- LDH release (Rattus norvegicus [6]): 6 U/g
- Activity (Rattus norvegicus [10]): 49%
